Test results: patent US20190375837A1, “IMMUNOCYTOKINE COMBINATION THERAPY” (priority 2017, published 2019)
Like-named read-outs stand apart in the source and are kept apart here.

Experiments:
in vivo [1] = details: nude, mouse
[2] = test system: SKRC-52 renal cell carcinoma; experiment: Tumor therapy in SKRC-52 xenografts: compound 2 with L19-IL2; type: in vivo, BALB/c nu/nu mice; details: day 17 after tumor implantation; compound 2 250 nmol/kg IV, L19-IL2 2.5 mg/Kg IV, single or combined
Excerpt: Animals were sacrificed when the termination criteria were reached.

[3] = test system: SKRC-52 renal cell carcinoma; details: for anti-cancer activity compared to vehicle: 250 nmol/Kg IV per administration, n=4 per group, p<0.0001 for compounds 2 and 4; for tumor growth retardation compared with the other SMDCs: compound 2 vs compound 4
Protocol: SKRC-52 cells were grown to 80% confluence and detached with Trypsin-EDTA 0.05% (Life Technologies). Cells were washed with Hank's Balanced Salt Solution (HBSS, pH 7.4) once, counted and re-suspended in HBSS to a final concentration of 5×10^7 cells/ml. Aliquots of 5×10^6 cells (100 μl of a suspension) were injected subcutaneously in the right flank of female athymic BALB/c nu/nu mice (6-8 weeks of age, Janvier).

SKRC-52 xenografts = experiment: in vivo; design: species or system BALB/c nu/nu mice; details: mouse, iv
Protocol: (§1) Radiolabeling procedures with technetium-99m were performed following described procedures (Krall N, Pretto F, Mattarella M, Muller C, Neri D. A technetium 99m-labeled ligand of carbonic anhydrase IX selectively targets renal cell carcinoma in vivo. J Nucl Med 2016; and Cazzamalli S, Dal Corso A, Neri D. Acetazolamide serves as selective delivery vehicle for dipeptide-linked drugs to renal cell carcinoma. Mol Cancer Ther 2016). Briefly, compounds 8, 9 and 10 (60 nmol) in TBS pH 7.4 (50 μl) were separately mixed with SnCl2 (Sigma Aldrich, 200 μg) and sodium glucoheptonate (TCI, 20 mg) in H2O (150 μl). Tris-buffered saline at pH 7.4 (600 μl) was added and the resulting solution degassed for 5 min by bubbling with nitrogen gas. The eluate from a ^99mTc-generator (200 μl, ca. 200 MBq, Mallinckrodt) was added and the reaction mixture heated to 90° C. for 20 min After cooling to room temperature, analytic aliquots were analyzed by RP-HPLC (XTerra C18, 5% MeCN in 0.1% aq. TFA to 80% over 20 min on a Merck-Hitachi D-7000 HPLC system equipped with a Raytest Gabi Star radiodetector) to determine radiolabelling yields. ^99mTc incorporations >95% were routinely achieved.
(§2) Mice were randomized (n=3 per group) and injected intravenously with radiolabelled preparations of compounds 8, 9 or 10 (1-3 MBq, 30 nmol/Kg). Mice were sacrificed 6 hours after the injection by CO2 asphyxiation and organs extracted, weighted and radioactivity measured with a Packard Cobra γ-counter. Values are expressed as % ID/g ±SD (FIG. 10B).

in vivo [4] = experiment: in vivo; design: species or system BALB/c nu/nu mice; details: female, BALB/c nu/nu, mouse, iv, 30 nmol/kg, total radioactivity
Protocol: as §1, §2

[5] = test system: SKRC-52 renal cell carcinoma; experiment: Tumor rechallenge of cured mice with SKRC-52, then treatment of regrowing tumors; type: in vivo, BALB/c nu/nu mice; details: L19-IL2 2.5 mg/Kg alone; 3 mice
Protocol: To determine whether the CAIX ligand armed with MMAE (compound 2, see example 1) in combination with L19-IL2 caused acquired protective immunity against the tumor, mice that were cured in the therapy experiment of Example 2 were injected with 5×10^6 cells (100 μl of a suspension) SKRC-52 cells/mouse 20 days after the treatment ended. […] Mice were rearranged in two groups and treated with either the compound 2 alone (250 nmol/Kg; 2 mice), or L19-IL2 (2.5 mg/Kg; 3 mice) alone (see the schedule in FIGS. 4A and 4B).

renal cell carcinoma = details: 18 patients with renal cell carcinoma; cited from earlier work

CC[C@H](C)[C@@H]([C@@H](CC(=O)N1CCC[C@H]1[C@H](OC)[C@@H](C)C(=O)N[C@H](C)[C@@H](O)c1ccccc1)OC)N(C)C(=O)[C@@H](NC(=O)[C@H](C(C)C)N(C)C(=O)OCc1ccc(NC(=O)[C@H](CCCNC(N)=O)NC(=O)[C@@H](NC(=O)CCCCCN2C(=O)CC(SC[C@H](NC(=O)[C@H](CC(=O)O)NC(=O)[C@H](CCCNC(=N)N)NC(=O)[C@H](CC(=O)O)NC(=O)[C@H](CCCCn3cc(CCCC(=O)Nc4nnc(S(N)(=O)=O)s4)nn3)NC(=O)C[C@H](NC(=O)C[C@H](NC(=O)CCC(C)(c3ccc(O)cc3)c3ccc(O)cc3)C(=O)O)C(=O)O)C(=O)O)C2=O)C(C)C)cc1)C(C)C (stereo partly shown) [compound 2, AAZ*-ValCit-MMAE]
MTD (in vivo [1]): 0.25 µmol/kg
antitumor activity (FIG. 3) [2]: Potent antitumor activity
durable complete response ([3]; 250 nmol/Kg IV): no mice had a durable complete response
tolerability (body weight changes, FIG. 9B) ([3]; 250 nmol/Kg IV): very well tolerated
anti-cancer activity compared to vehicle [3]: potent anti-cancer activity
tumor growth retardation compared with the other SMDCs ([3]; 250 nmol/Kg IV): most potent tumor growth retardation effect
tumor growth retardation compared with the other SMDCs ([3]; 250 nmol/Kg IV, listed as SMDC 2): superior antitumor activity
therapeutic efficacy after presaturation with excess of free AAZ* (compound 7) ([3]; 50-fold dose of AAZ* ligand (1.25 μmol/Kg) directly followed by compound 2 250 nmol/Kg): reduced significantly

CC[C@H](C)[C@@H]([C@@H](CC(=O)N1CCC[C@H]1[C@H](OC)[C@@H](C)C(=O)N[C@H](C)[C@@H](O)c1ccccc1)OC)N(C)C(=O)[C@@H](NC(=O)[C@H](C(C)C)N(C)C(=O)OCc1ccc(NC(=O)[C@H](CCCNC(N)=O)NC(=O)[C@@H](NC(=O)CCCCCN2C(=O)CC(SC[C@H](NC(=O)[C@H](CC(=O)O)NC(=O)[C@H](CCCNC(=N)N)NC(=O)[C@H](CC(=O)O)NC(=O)CCCCn3cc(CCCC(=O)Nc4nnc(S(N)(=O)=O)s4)nn3)C(=O)O)C2=O)C(C)C)cc1)C(C)C (stereo partly shown) [compound 4, AAZ-ValCit-MMAE, reference compound]
anti-cancer activity compared to vehicle [3]: potent anti-cancer activity

CC[C@H](C)[C@@H]([C@@H](CC(=O)N1CCC[C@H]1[C@H](OC)[C@@H](C)C(=O)N[C@H](C)[C@@H](O)c1ccccc1)OC)N(C)C(=O)[C@@H](NC(=O)[C@H](C(C)C)N(C)C(=O)OCc1ccc(NC(=O)[C@H](CCCNC(N)=O)NC(=O)[C@@H](NC(=O)CCCCCN2C(=O)CC(SC[C@H](NC(=O)[C@H](CC(=O)O)NC(=O)[C@H](CCCNC(=N)N)NC(=O)[C@H](CC(=O)O)NC(=O)[C@H](CCCCn3cc(CCCC(N)=O)nn3)NC(=O)C[C@H](NC(=O)C[C@H](NC(=O)CCC(C)(c3ccc(O)cc3)c3ccc(O)cc3)C(=O)O)C(=O)O)C(=O)O)C2=O)C(C)C)cc1)C(C)C (stereo partly shown) [compound 6, NH2^+-ValCit-MMAE]
anti-cancer activity compared to vehicle [3]: did not display a difference from the vehicle-treated group

CC(CCC(=O)N[C@@H](CC(=O)N[C@@H](CC(=O)N[C@@H](CCCCn1cc(CCCC(=O)Nc2nnc(S(N)(=O)=O)s2)nn1)C(=O)NCCCC[C@H](N)C(=O)N[C@@H](CC(=O)O)C(=O)N[C@@H](CS)C(=O)O)C(=O)O)C(=O)O)(c1ccc(O)cc1)c1ccc(O)cc1 [compound 8, AAZ*-^99mTc Chelator, metal not drawn]
tumor to blood ratio (SKRC-52 xenografts): 80:1
tissue uptake at 6 h (in vivo [4]): 40 %ID/g

N[C@@H](CCCCNC(=O)[C@H](CC(=O)O)NC(=O)CCCCn1cc(CCCC(=O)Nc2nnc(S(N)(=O)=O)s2)nn1)C(=O)N[C@@H](CC(=O)O)C(=O)N[C@@H](CS)C(=O)O [compound 9, AAZ-^99mTc Chelator, metal not drawn, reference compound]
tissue uptake at 6 h (in vivo [4]): 18 %ID/g

L19-IL2: immunocytokine in which the anti-EDB antibody L19 (scFv) is conjugated to IL-2, SEQ ID NO: 22
second complete tumor regression of regrowing tumors [5]: second complete tumor regression for all 3 animals
antitumor activity (FIG. 3) [2]: Potent antitumor activity
objective responses (renal cell carcinoma): no objective responses
